Measurements as given in ChEMBL document CHEMBL4699477, “Tricyclic sulfones as potent, selective and efficacious RORγt inverse agonists - Exploring C6 and C8 SAR using late-stage functionalization” (Bioorg Med Chem Lett, 2020).
Active and inactive are the calls of the source. The calls are words filed in the database; no cut-off is given here.

Legend:
[1] = target: T1, Nuclear receptor ROR-gamma (Homo sapiens, UniProt P51449); assay: Inverse agonist activity at Gal4-fused RORgammat (unknown origin)
T1 sequence (P51449 whole entry): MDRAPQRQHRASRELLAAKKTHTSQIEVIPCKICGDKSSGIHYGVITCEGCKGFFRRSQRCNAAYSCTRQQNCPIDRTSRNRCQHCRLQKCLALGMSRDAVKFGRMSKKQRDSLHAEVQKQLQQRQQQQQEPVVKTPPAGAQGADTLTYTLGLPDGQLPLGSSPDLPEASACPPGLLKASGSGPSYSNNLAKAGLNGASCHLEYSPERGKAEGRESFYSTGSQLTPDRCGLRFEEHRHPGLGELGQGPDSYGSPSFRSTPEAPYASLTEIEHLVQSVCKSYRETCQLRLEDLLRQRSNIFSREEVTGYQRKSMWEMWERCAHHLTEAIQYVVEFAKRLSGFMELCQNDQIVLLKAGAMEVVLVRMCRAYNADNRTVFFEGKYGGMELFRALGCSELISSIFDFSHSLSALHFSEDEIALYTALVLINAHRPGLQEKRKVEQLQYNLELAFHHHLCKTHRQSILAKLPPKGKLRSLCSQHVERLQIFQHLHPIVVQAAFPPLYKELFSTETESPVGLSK

[2] = Cmax in Balb/c mouse at 10 mg/kg, po; assay type: ADME, organism-based; set-up: route oral, dose 10 mg/kg; settings: in vivo
[3] = Metabolic stability in mouse liver microsomes assessed as half life; assay type: ADME, Microsome
[4] = Metabolic stability in rat liver microsomes assessed as half life; assay type: ADME, Microsome
[5] = Drug concentration in Balb/c mouse at 10 mg/kg, po measured after 24 hrs; assay type: ADME, organism-based; settings: in vivo, read-out: Drug uptake
[6] = target: T1, Nuclear receptor ROR-gamma; assay: Inverse agonist activity at RORgammat in CD3 and CD28-stimulated human whole blood assessed as reduction in IL17A production incubated for 1 hr before CD3 and CD28 stimulation for 20 hrs by AlphaLISA method; assay type: tissue-based
[7] = Metabolic stability in human liver microsomes assessed as half life; assay type: ADME, Microsome
[8] = GSH reactivity in human liver cytosol assessed as GSH adduct formation; assay type: ADME, subcellular, Cytoplasm
Mus musculus = assay: Protection against recombinant human IL23-induced acanthosis C57BL/6 mouse model assessed as reduction in ear swelling at 50 mg/kg, po administered bid for 9 days; assay type: functional, organism-based; settings: time 9.0 day

| SMILES | half-life [3] | half-life [4] | half-life [7] | further results |
| --- | --- | --- | --- | --- |
| O=C(O)[C@H]1CC[C@H](C(=O)N2CC[C@@]3(S(=O)(=O)c4ccc(F)cc4)c4ccc(C(F)(C(F)(F)F)C(F)(F)F)cc4CC[C@@H]23)CC1 |  |  |  | Cmax [2]: 1400 nM; concentration at 24 h [5]: 400 nM |
| C[C@H]1C[C@H](C(=O)O)CC[C@H]1C(=O)N1CC[C@@]2(S(=O)(=O)c3ccccc3)c3ccc(C(F)(C(F)(F)F)C(F)(F)F)cc3CC[C@@H]12 |  |  |  | EC50 [6]: 52 nM |
| O=C(O)[C@H]1CC[C@H](C(=O)N2CC[C@](c3ccc(C(F)(C(F)(F)F)C(F)(F)F)cc3)(S(=O)(=O)c3ccc(F)cc3)C2)CC1 |  |  |  | inhibition (Mus musculus): Active |

Second part, led by results:

| half-life [3] | half-life [4] | half-life [7] | SMILES | further results |
| --- | --- | --- | --- | --- |
| > 2 h | 1.45 h | > 2 h | N#Cc1cc2c(cc1C(F)(C(F)(F)F)C(F)(F)F)CC[C@H]1N(C(=O)[C@H]3CC[C@H](C(=O)O)CC3)CC[C@@]21S(=O)(=O)c1ccc(F)cc1 | EC50 [1]: 17 nM; Cmax [2]: 8600 nM; concentration at 24 h [5]: 1600 nM; EC50 [6]: 13 nM |
| > 2 h | > 2 h | > 2 h | Cc1cc2c(cc1C(F)(C(F)(F)F)C(F)(F)F)CC[C@H]1N(C(=O)[C@H]3CC[C@H](C(=O)O)CC3)CC[C@@]21S(=O)(=O)c1ccc(F)cc1 |  |
| > 2 h | > 2 h | > 2 h | C[C@H]1C[C@H](C(=O)O)CC[C@H]1C(=O)N1CC[C@@]2(S(=O)(=O)c3ccc(F)cc3)c3ccc(C(F)(C(F)(F)F)C(F)(F)F)cc3CC[C@@H]12 [BMS-986251] | Activity [8]: 6% |
| > 2 h | 1.38 h | > 2 h | O=C(O)[C@H]1CC[C@H](C(=O)N2CC[C@@]3(S(=O)(=O)c4ccc(F)cc4)c4cc(Cl)c(C(F)(C(F)(F)F)C(F)(F)F)cc4CC[C@@H]23)CC1 |  |
